# From ChEMBL document CHEMBL4270538, “Targeting prohibitin with small molecules to promote melanogenesis and apoptosis in melanoma cells” (Eur J Med Chem, 2018)
# pIC50: −log10 of the molar value. Activity calls are given as the source filed them. No cut-off for these calls is given here.
# Key:
# [1] = target: T1, Prohibitin 1 (Homo sapiens) (UniProt P35232); assay: Downregulation of PHB1 in human HBL cells at 0.1 to 10 uM after 24 to 48 hrs by Western blot analysis; type: cell-based
# T1 sequence (whole entry): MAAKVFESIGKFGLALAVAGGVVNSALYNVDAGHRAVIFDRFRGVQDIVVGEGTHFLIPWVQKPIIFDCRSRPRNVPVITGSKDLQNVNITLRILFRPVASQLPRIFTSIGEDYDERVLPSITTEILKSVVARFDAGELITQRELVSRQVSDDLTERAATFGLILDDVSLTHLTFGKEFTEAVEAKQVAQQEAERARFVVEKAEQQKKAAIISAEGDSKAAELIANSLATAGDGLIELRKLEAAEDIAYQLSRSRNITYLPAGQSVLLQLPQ
# [2] = target: Prohibitin-2 (Homo sapiens) (UniProt Q99623); assay: Induction of PHB2-mediated melanogenesis in human HBL cells assessed as pigmentation at 1 uM after 10 days relative to control; type: cell-based
# [3] = target: Prohibitin-2 (Homo sapiens) (UniProt Q99623); assay: Induction of PHB2-mediated melanogenesis in human HBL cells assessed as pigmentation at 10 uM after 10 days relative to control; type: cell-based
# [4] = target: Prohibitin-2 (Homo sapiens) (UniProt Q99623); assay: Induction of PHB2-mediated melanogenesis in human MM043 cells assessed as pigmentation at 1 to 10 uM after 10 days relative to control; type: cell-based
# [5] = target: Prohibitin-2 (Homo sapiens) (UniProt Q99623); assay: Induction of PHB2-mediated melanogenesis in human MM162 cells assessed as pigmentation at 1 to 10 uM after 10 days relative to control; type: cell-based
# [6] = target: Prohibitin-2 (Homo sapiens) (UniProt Q99623); assay: Binding affinity to PHB2 in human HBL cells assessed as upregulation of MITF protein expression at 0.1 to 10 uM after 24 to 48 hrs by Western blot analysis; type: cell-based
# [7] = target: Prohibitin-2 (Homo sapiens) (UniProt Q99623); assay: Binding affinity to PHB2 in human HBL cells assessed as upregulation of tyrosinase protein expression at 0.1 to 10 uM after 24 to 48 hrs by Western blot analysis; type: cell-based
# [8] = target: Prohibitin-2 (Homo sapiens) (UniProt Q99623); assay: Binding affinity to PHB2 in human HBL cells assessed as LC3-2 accumulation after 24 to 48 hrs by Western blot analysis; type: cell-based
# [9] = target: Prohibitin-2 (Homo sapiens) (UniProt Q99623); assay: Binding affinity to PHB2 in human HBL cells assessed as upregulation of ERK phosphorylation at 0.1 to 10 uM after 24 hrs by Western blot analysis; type: cell-based
# [10] = target: Prohibitin-2 (Homo sapiens) (UniProt Q99623); assay: Binding affinity to PHB2 in human HBL cells assessed as feedback mechanism based inhibition of ERK phosphorylation at 0.1 to 10 uM after 48 hrs by Western blot analysis; type: cell-based
# [11] = target: Prohibitin-2 (Homo sapiens) (UniProt Q99623); assay: Downregulation of PHB2 in human HBL cells at 0.1 to 10 uM after 24 to 48 hrs by Western blot analysis; type: cell-based
# [12] = target: RAC-alpha serine/threonine-protein kinase (Homo sapiens) (UniProt P31749); assay: Inhibition of Akt phosphorylation in human HBL cells at 0.1 to 10 uM after 24 to 48 hrs by Western blot analysis; type: cell-based
# HL-60 = assay: Inhibition of cell proliferation in human HL60 cells after 72 hrs by MTS assay; type: functional, cell-based; conditions: HL-60, 72 h
# KB = assay: Inhibition of cell proliferation in human KB cells after 72 hrs by MTS assay; type: functional, cell-based
# [13] = target: T1, Prohibitin 1 (Homo sapiens); assay: Downregulation of PHB1 in human HL60 cells at 0.1 to 10 uM after 24 hrs by Western blot analysis; type: cell-based
# [14] = target: Prohibitin-2 (Homo sapiens) (UniProt Q99623); assay: Downregulation of PHB2 in human HL60 cells at 0.1 to 10 uM after 24 hrs by Western blot analysis; type: cell-based
# [15] = target: Prohibitin-2 (Homo sapiens) (UniProt Q99623); assay: Binding affinity to PHB2 in human HL60 cells assessed as LC3-2 accumulation at 0.1 to 10 uM after 24 hrs by Western blot analysis; type: cell-based
# [16] = target: Prohibitin-2 (Homo sapiens) (UniProt Q99623); assay: Binding affinity to PHB2 in human HL60 cells assessed as upregulation of ERK phosphorylation at 0.1 uM after 24 hrs by Western blot analysis; type: cell-based
# [17] = target: RAC-alpha serine/threonine-protein kinase (Homo sapiens) (UniProt P31749); assay: Inhibition of Akt phosphorylation in human HL60 cells after 24 to 48 hrs by Western blot analysis; type: cell-based
# HBL = assay: Induction of apoptosis in human HBL cells at 1 to 10 uM after 48 hrs by Annexin V-PE/7-AAD staining based flow cytometry; type: functional, cell-based
# Homo sapiens [18] = organism: Homo sapiens; assay: Induction of apoptosis in human MM043 cells at 1 to 10 uM after 48 hrs by Annexin V-PE/7-AAD staining based flow cytometry; type: functional, cell-based
# Homo sapiens [19] = organism: Homo sapiens; assay: Induction of apoptosis in human MM162 cells at 1 to 10 uM after 48 hrs by Annexin V-PE/7-AAD staining based flow cytometry; type: functional, cell-based
# [20] = target: Prohibitin-2 (Homo sapiens) (UniProt Q99623); assay: Induction of PHB2-mediated melanogenesis in human HBL cells assessed as pigmentation at 10 uM after 10 days in presence of autophagy inhibitor PIK-3; type: cell-based
# [21] = target: Prohibitin-2 (Homo sapiens) (UniProt Q99623); assay: Induction of PHB2-mediated melanogenesis in human HBL cells assessed as pigmentation at 10 uM after 10 days in presence of autophagy activator HD1; type: cell-based
# [22] = target: Prohibitin-2 (Homo sapiens) (UniProt Q99623); assay: Binding affinity to PHB2 in human HBL cells assessed as upregulation of MITF protein expression at 10 uM after 24 in presence of autophagy inhibitor PIK-3 by Western blot analysis; type: cell-based
# [23] = target: Prohibitin-2 (Homo sapiens) (UniProt Q99623); assay: Binding affinity to PHB2 in human HBL cells assessed as upregulation of MITF protein expression at 10 uM after 24 in presence of autophagy activator HD1 by Western blot analysis; type: cell-based
# [24] = target: Prohibitin-2 (Homo sapiens) (UniProt Q99623); assay: Binding affinity to PHB2 in human HBL cells assessed as LC3-2 accumulation at 10 uM after 24 in presence of autophagy inhibitor PIK-3 by Western blot analysis; type: cell-based
# [25] = target: Prohibitin-2 (Homo sapiens) (UniProt Q99623); assay: Binding affinity to PHB2 in human HBL cells assessed as LC3-2 accumulation at 10 uM after 24 in presence of autophagy activator HD1 by Western blot analysis; type: cell-based
# [26] = target: T1, Prohibitin 1 (Homo sapiens); assay: Downregulation of PHB1 in human MM043 cells at 0.1 to 10 uM after 24 hrs by Western blot analysis; type: cell-based
# [27] = target: Prohibitin-2 (Homo sapiens) (UniProt Q99623); assay: Downregulation of PHB2 in human MM043 cells at 0.1 to 10 uM after 24 hrs by Western blot analysis; type: cell-based
# [28] = target: RAC-alpha serine/threonine-protein kinase (Homo sapiens) (UniProt P31749); assay: Inhibition of Akt phosphorylation in human MM043 cells at 0.1 to 10 uM after 24 hrs by Western blot analysis; type: cell-based
# [29] = target: T1, Prohibitin 1 (Homo sapiens); assay: Downregulation of PHB1 in human MM162 cells at 0.1 to 10 uM after 24 hrs by Western blot analysis; type: cell-based
# [30] = target: Prohibitin-2 (Homo sapiens) (UniProt Q99623); assay: Downregulation of PHB2 in human MM162 cells at 0.1 to 10 uM after 24 hrs by Western blot analysis; type: cell-based
# [31] = target: RAC-alpha serine/threonine-protein kinase (Homo sapiens) (UniProt P31749); assay: Inhibition of Akt phosphorylation in human MM162 cells at 0.1 to 10 uM after 24 hrs by Western blot analysis; type: cell-based
# [32] = target: T1, Prohibitin 1 (Homo sapiens); assay: Binding affinity to PHB1 in human HBL cells using affigel conjugated compound after overnight incubation by pull down assay; type: cell-based
# Chain of Prohibitin-2 (Homo sapiens) (Q99623 whole entry): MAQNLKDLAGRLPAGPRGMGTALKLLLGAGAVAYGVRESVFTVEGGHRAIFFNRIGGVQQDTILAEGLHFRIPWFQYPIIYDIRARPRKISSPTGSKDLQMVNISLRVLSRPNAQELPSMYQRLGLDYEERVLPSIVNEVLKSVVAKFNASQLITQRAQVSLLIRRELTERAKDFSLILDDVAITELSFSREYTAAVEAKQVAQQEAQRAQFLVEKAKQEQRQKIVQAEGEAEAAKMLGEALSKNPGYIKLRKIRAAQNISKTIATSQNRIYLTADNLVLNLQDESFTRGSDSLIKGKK
# Chain of RAC-alpha serine/threonine-protein kinase (Homo sapiens) (P31749 whole entry): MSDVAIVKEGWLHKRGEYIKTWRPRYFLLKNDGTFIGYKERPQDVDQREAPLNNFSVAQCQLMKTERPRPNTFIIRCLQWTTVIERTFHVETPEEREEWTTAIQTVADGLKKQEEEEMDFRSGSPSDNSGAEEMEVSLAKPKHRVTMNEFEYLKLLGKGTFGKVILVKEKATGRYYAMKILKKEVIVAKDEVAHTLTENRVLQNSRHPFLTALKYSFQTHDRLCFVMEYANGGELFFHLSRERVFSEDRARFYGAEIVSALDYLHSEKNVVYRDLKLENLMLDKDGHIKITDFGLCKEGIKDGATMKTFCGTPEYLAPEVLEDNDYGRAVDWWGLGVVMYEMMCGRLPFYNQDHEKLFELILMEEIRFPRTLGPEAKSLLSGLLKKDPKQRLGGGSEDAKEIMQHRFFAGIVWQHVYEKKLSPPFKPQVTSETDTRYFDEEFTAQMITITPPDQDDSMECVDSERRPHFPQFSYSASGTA
compound,measurement,setting,value
CN(C)CCNc1nc(Oc2c(F)c(F)c(F)c(F)c2F)nc(N2CCCc3ccccc3C2)n1,Activity,[1],Active
same,fold change (FC),[2],0.89
same,fold change (FC),[3],2.23
same,Activity,[4],Active
same,Activity,[5],Active
same,Activity,[6],Active
same,Activity,[7],Active
same,Activity,[8],Dose-dependent effect
same,Activity,[9],Active
same,inhibition,[10],Active
same,Activity,[11],Active
same,inhibition,[12],Active
same,pIC50,HL-60,4.02
same,pIC50,KB,4.20
same,Activity,[13],Active
same,Activity,[14],Active
same,Activity,[15],Active
same,Activity,[16],Active
same,inhibition,[17],Dose-dependent effect
Nc1nc(NCc2cccc(F)c2)nc(Oc2c(F)c(F)c(F)c(F)c2F)n1,fold change (FC),[2],0.92
same,fold change (FC),[3],0.91
Fc1cccc(CNc2nc(NCCc3cc4ccccc4[nH]3)nc(Oc3c(F)c(F)c(F)c(F)c3F)n2)c1,fold change (FC),[2],1.09
same,fold change (FC),[3],1.25
Fc1cccc(CNc2nc(NCc3cccnc3)nc(Oc3c(F)c(F)c(F)c(F)c3F)n2)c1,fold change (FC),[2],0.92
same,fold change (FC),[3],0.94
CC[C@@H](CO)Nc1nc(NCc2cccc(F)c2)nc(Oc2c(F)c(F)c(F)c(F)c2F)n1,fold change (FC),[2],0.8
same,fold change (FC),[3],0.61
CN(C)C1CCN(c2nc(Oc3c(F)c(F)c(F)c(F)c3F)nc(N3CCCc4ccccc4C3)n2)CC1,fold change (FC),[2],0.83
same,fold change (FC),[3],1.51
same,Activity,HBL,Active
same,Activity,Homo sapiens [18],Active
same,Activity,Homo sapiens [19],Active
CNc1nc(Oc2c(F)c(F)c(F)c(F)c2F)nc(N(C)Cc2cccc(F)c2)n1,fold change (FC),[2],0.84
same,fold change (FC),[3],0.78
Fc1cccc(CNc2nc(Oc3c(F)c(F)c(F)c(F)c3F)nc(N3CCC(N4CCCCC4)CC3)n2)c1,Activity,[1],Active
same,fold change (FC),[2],1.15
same,fold change (FC),[3],2.01
same,Activity,[4],Active
same,Activity,[5],Active
same,Activity,[6],Active
same,Activity,[7],Active
same,Activity,[8],Dose-dependent effect
same,Activity,[20],inactive
same,Activity,[21],Active
same,Activity,[22],inactive
same,Activity,[23],Active
same,Activity,[24],inactive
same,Activity,[25],Active
same,Activity,[9],Active
same,inhibition,[10],Active
same,Activity,[11],Active
same,inhibition,[12],Active
same,Activity,[26],Active
same,Activity,[27],Active
same,inhibition,[28],Active
same,Activity,[29],Active
same,Activity,[30],Active
same,inhibition,[31],Active
same,pIC50,HL-60,4.60
same,pIC50,KB,4.34
same,Activity,HBL,Active
same,Activity,Homo sapiens [18],Active
same,Activity,Homo sapiens [19],Active
same,Activity,[13],Active
same,Activity,[14],Active
same,Activity,[15],Active
same,Activity,[16],Active
same,inhibition,[17],Dose-dependent effect
CN(C)CCNc1nc(Oc2c(F)c(F)c(F)c(F)c2F)nc(N(C)Cc2cccc(F)c2)n1,fold change (FC),[2],1.15
same,fold change (FC),[3],1.97
CC(C)CCNc1nc(NCc2cccc(F)c2)nc(Oc2c(F)c(F)c(F)c(F)c2F)n1,fold change (FC),[2],0.7
same,fold change (FC),[3],0.89
Fc1c(F)c(F)c(Oc2nc(N3CCC(N4CCCCC4)CC3)nc(N3CCCc4ccccc4C3)n2)c(F)c1F,fold change (FC),[2],0.87
same,fold change (FC),[3],1.79
same,Activity,[32],Active
Fc1cccc(CNc2nc(NCc3ccncc3)nc(Oc3c(F)c(F)c(F)c(F)c3F)n2)c1,fold change (FC),[2],0.77
same,fold change (FC),[3],0.76
